Laboratory results taken from patent US20260191194A1, “OXABICYCLOALKANE COMPOUNDS, PREPARATION METHOD THEREFOR, AND HERBICIDAL COMPOSITION AND USE THEREOF” (QINGDAO KINGAGROOT CHEMICAL COMPOUND CO., LTD., priority 2022, published 2026).

Legend:
Assay type in all cases: in vivo
Soliva anthemifolia = test: Activity test of compositions, early post-emergence foliage spray (F-EP); conditions: 21 days after treatment
Method: (§1) The required active ingredient B was purchased from a reagent company or synthesized by a known method. The technical materials were all dissolved with acetone solvents and diluted with an aqueous solution of 0.1% Tween 80 emulsifier, which were to be used immediately after dilution.
(§2) Weeds were cultivated by a pot culture method. […] Weed seeds with plump and uniform grains were selected, soaked in lukewarm water at 25° C. for 6 hours, and accelerated to germinate in a 28° C. biochemical incubator (in darkness). The weed seeds that had just germinated were evenly placed on the surface of the soil and then covered with 0.5-1 cm soil according to the sizes of seeds.
(§3) The culture was carried out in a controllable sunlight greenhouse at 20 to 30° C., in natural light, and with relative humidity of 57% to 72%.
(§4) Each treatment was repeated 4 times. Four pots with 20 weed seeds sowed per pot were treated each time.
(§5) The agents were used once in total in the experiment. In the stage of 1-2 leaves, the weeds were thinned out to maintain 10 strains per treatment for later use.
(§6) The well-cultured test materials were evenly placed on a platform with an area of 0.5 m^2, and foliage spraying was carried out by the 3WP-2000-type walking spray tower at a dosage of 450 kg/ha and a spray pressure of 0.3 MPa. After all the solution was sprayed, the air valve was closed, and 30 seconds later, the door of the spray tower was opened, and the nutritional bowl was taken out. Then the air valve was opened, and the spray tube was cleaned by spraying 50 ml of water. The test materials were transferred to and routinely cultured in a greenhouse after the treatment.
(§7) A method for investigating absolute numbers was employed. Whole seedlings of survival weeds were cut off with a blade along the soil surface, and the fresh weight of the weeds was weighed using an analytical balance. For dead weeds, the fresh weight thereof was zero.
(§8) The investigation was performed 21 days after the treatment for once in total.
(§9) The theoretical fresh weight inhibition rate of a mixed combination of each treatment was calculated by the Gowing method (E0=X+Y−X*Y/100). […] An optimal ratio was determined according to the actual control effects, characteristics of herbicides, and balance of the formulation. In the formula, X represents the fresh weight inhibition rate of the active ingredient A in a dosage of P; Y represents the fresh weight inhibition rate of the active ingredient B in a dosage of Q. The statistical results are shown in Table 4.

Digitaria ischaemum = test: Activity test of compositions, soil sealing treatment (S); conditions: 21 days after treatment
Source text: as §1
The test soil was quantitatively filled to 3/4 of the pot, and then watered from the bottom of the pot to completely wet the soil to saturation. The test weed seeds were accelerated to just germinate, and then evenly and quantitatively sowed on the soil surface, covered with 0.5-1 cm soil according to the sizes of the seeds, and ready for use 72 hours after sowing.
as §4
(§10) The well-sowed test materials were evenly placed on a platform with an area of 0.5 m^2, and foliage spraying was carried out by the 3WP-2000-type walking spray tower at a dosage of 450 kg/ha and a spray pressure of 0.3 MPa. After all the solution was sprayed, the air valve was closed, and 30 seconds later, the door of the spray tower was opened, and the nutritional bowl was taken out. Then the air valve was opened, and the spray tube was cleaned by spraying 50 ml of water.
as §7, §8, §9

Echinochloa glabrescens [1] = test: as above; conditions: 21 days after treatment
Method: as §1
(§11) Weeds were cultivated in a controllable sunlight greenhouse at 20 to 30° C., in natural light, and with relative humidity of 57% to 72%. […] The test soil was quantitatively filled to 3/4 of the pot, and then watered from the bottom of the pot to completely wet the soil to saturation. The test weed seeds were accelerated to just germinate, and then evenly and quantitatively sowed on the soil surface, covered with 0.5-1 cm soil according to the sizes of the seeds, and ready for use 72 hours after sowing.
as §4, §10, §7, §8, §9

[2] = test system: Echinochloa crus-galli var. austrojaponensis; test: Activity test of compositions, early post-emergence foliage spray (F-EP); conditions: 21 days after treatment; for pest or weed control at 450 g/ha: B alone 450 g a.i./ha; for pest or weed control at 300 g/ha: B alone 300 g a.i./ha
Method: as §1, §2, §3, §4, §5, §6, §7, §8, §9

Arivela viscosa = test: Activity test of compositions, soil sealing treatment (S); conditions: 21 days after treatment
Method: as §1, §11, §4, §10, §7, §8, §9

Cyperus glomeratus = test: as above; conditions: 21 days after treatment
Method: as §1, §11, §4, §10, §7, §8, §9

Echinochloa glabrescens [3] = test: Activity test of compositions, early post-emergence foliage spray (F-EP); conditions: 21 days after treatment
Method: as §1, §2, §3, §4, §5, §6, §7, §8, §9

Oxybasis glauca = test: Activity test of compositions, soil sealing treatment (S); conditions: B alone 15 g a.i./ha, 21 days after treatment
Method: as §1, §11, §4, §10, §7, §8, §9

[4] = Echinochloa crus-galli, 504 h, read-out: Control effect of B applied alone in a corresponding dose
[5] = B alone 30 g a.i./ha (with A 60)

CC(C)CCCCCOC(=O)COc1ccc(Cl)cc1Cl [2,4-D-isooctyl]
Control effect of B applied alone in a corresponding dose (Soliva anthemifolia; B alone 225 g a.i./ha): 61.4%

Cc1cc(Cl)ccc1OCC(=O)OCCCCCC(C)C [MCPA-isooctyl]
Control effect of B applied alone in a corresponding dose (Soliva anthemifolia; B alone 300 g a.i./ha): 65%

CCOCN(C(=O)CCl)c1c(C)cccc1CC [acetochlor]
Control effect of B applied alone in a corresponding dose (Digitaria ischaemum; B alone 300 g a.i./ha): 41.3

COP(=S)(OC)SCC(=O)N(c1ccc(Cl)cc1)C(C)(C)C [anilofos]
Control effect of B applied alone in a corresponding dose (Echinochloa glabrescens [1]; B alone 75 g a.i./ha): 37.2

CCNc1nc(Cl)nc(NC(C)C)n1 [atrazine]
pest or weed control at 450 g/ha [2, 4]: 43.4%

CC[C@H](Oc1ccc(F)c(C(F)(F)F)c1)C(=O)NCc1ccccc1 [beflubutamid-M]
Control effect of B applied alone in a corresponding dose (Arivela viscosa; B alone 90 g a.i./ha): 55.2%

COC(=O)c1ccccc1CS(=O)(=O)NC(=O)Nc1nc(OC)cc(OC)n1 [bensulfuronmethyl, bensulfuron-methyl]
Control effect of B applied alone in a corresponding dose (Cyperus glomeratus; B alone 7.5 g a.i./ha): 27.5%

CS(=O)(=O)c1ccc(C(=O)C2=C(Sc3ccccc3)C3CCC(C3)C2=O)c(Cl)c1 (stereo not shown) [benzobicyclon]
Control effect of B applied alone in a corresponding dose ([2]; B alone 60 g a.i./ha): 48.7%

Cc1nn(C)cc1C(=O)Oc1c(C(=O)c2ccc(C(F)(F)F)cc2S(C)(=O)=O)c(C)nn1C [bipyrazone]
Control effect of B applied alone in a corresponding dose [2, 5]: 52.7%

CC1(C)CON(Cc2ccc(Cl)cc2Cl)C1=O [bixlozone]
Control effect of B applied alone in a corresponding dose (Arivela viscosa; B alone 120 g a.i./ha): 74.5%

CCCCOCN(C(=O)CCl)c1c(CC)cccc1CC [butachlor]
Control effect of B applied alone in a corresponding dose (Echinochloa glabrescens [1]; B alone 300 g a.i./ha): 41.3

CCC(C)Nc1c([N+](=O)[O-])cc(C(C)(C)C)cc1[N+](=O)[O-] (stereo not shown) [butralin]
Control effect of B applied alone in a corresponding dose (Digitaria ischaemum; B alone 900 g a.i./ha): 60.2

Cc1ccc(NC(=O)N(C)C)cc1Cl [chlorotoluron]
pest or weed control at 450 g/ha [2, 4]: 37.6%

CC1(C)CON(Cc2ccccc2Cl)C1=O [clomazone]
Control effect of B applied alone in a corresponding dose (Arivela viscosa; B alone 75 g a.i./ha): 70.6%

CCCCOC(=O)[C@@H](C)Oc1ccc(Oc2ccc(C#N)cc2F)cc1 [cyhalofop-butyl]
Control effect of B applied alone in a corresponding dose (Echinochloa glabrescens [3]; B alone 150 g a.i./ha): 46.6%

O=C(Nc1ccc(F)cc1F)c1cccnc1Oc1cccc(C(F)(F)F)c1 [diflufenican]
Control effect of B applied alone in a corresponding dose (Arivela viscosa; B alone 52.5 g a.i./ha): 65.8%

CCn1ncc(C(=O)c2ccc(S(C)(=O)=O)c(COCC(F)(F)F)c2Cl)c1OC(=O)c1cn(C)nc1C [fenpyrazone]
Control effect of B applied alone in a corresponding dose [2, 5]: 53.1%

CCN(C(=O)n1nnn(-c2ccccc2Cl)c1=O)C1CCCCC1 [fentrazamide]
Control effect of B applied alone in a corresponding dose (Echinochloa glabrescens [1]; B alone 75 g a.i./ha): 40.3

COc1c(Cl)ccc(-c2nc(C(=O)OCc3ccccc3)c(Cl)c(N)c2F)c1F [florpyrauxifenbenzyl, florpyrauxifen-benzyl]
Control effect of B applied alone in a corresponding dose (Soliva anthemifolia; B alone 7.5 g a.i./ha): 60.2%

Cc1ccn2nc(S(=O)(=O)Nc3c(F)cccc3F)nc2n1 [flumetsulam]
Control effect of B applied alone in a corresponding dose (Oxybasis glauca): 57.9

Nc1c(Cl)c(F)nc(OCC(=O)O)c1Cl [fluroxypyr]
Control effect of B applied alone in a corresponding dose (Soliva anthemifolia; B alone 75 g a.i./ha): 66.7%

CC(C)c1ccc(NC(=O)N(C)C)cc1 [isoproturon]
pest or weed control at 300 g/ha [2, 4]: 31.3%

CS(=O)(=O)c1cc(C(F)(F)F)ccc1C(=O)c1cnoc1C1CC1 [isoxaflutole]
pest or weed control at 30 g/ha ([2]; Echinochloa crus-galli, 504 h, B alone 30 g a.i./ha (with A 60), read-out: Control effect of B applied alone in a corresponding dose): 47.8%

CN(C(=O)COc1nc2ccccc2s1)c1ccccc1 [mefenacet]
Control effect of B applied alone in a corresponding dose (Echinochloa glabrescens [1]; B alone 150 g a.i./ha): 37.9

CS(=O)(=O)c1ccc(C(=O)C2C(=O)CCCC2=O)c([N+](=O)[O-])c1 [mesotrione]
pest or weed control at 60 g/ha ([2]; Echinochloa crus-galli, 504 h, B alone 60 g a.i./ha (with A 60), read-out: Control effect of B applied alone in a corresponding dose): 51.7%

C[C@@H](Oc1ccc(Oc2nc3ccc(Cl)cc3o2)cc1)C(=O)N(C)c1ccccc1F [metamifop]
Control effect of B applied alone in a corresponding dose (Echinochloa glabrescens [3]; B alone 75 g a.i./ha): 58.8%

CSc1nnc(C(C)(C)C)c(=O)n1N [metribuzin]
pest or weed control at 150 g/ha ([2]; Echinochloa crus-galli, 504 h, B alone 150 g a.i./ha, read-out: Control effect of B applied alone in a corresponding dose): 42.9%

CC(C)Oc1cc(-n2nc(C(C)(C)C)oc2=O)c(Cl)cc1Cl [oxadiazon]
Control effect of B applied alone in a corresponding dose (Cyperus glomeratus; B alone 90 g a.i./ha): 32.4%

CC1=C(c2ccccc2)C(=O)N(C(C)(C)c2cc(Cl)cc(Cl)c2)CO1 [oxaziclomefone]
Control effect of B applied alone in a corresponding dose (Cyperus glomeratus; B alone 22.5 g a.i./ha): 58.5%

CCOc1cc(Oc2ccc(C(F)(F)F)cc2Cl)ccc1[N+](=O)[O-] [oxyfluorfen]
Control effect of B applied alone in a corresponding dose (Cyperus glomeratus; B alone 45 g a.i./ha): 37.2%

CCC(CC)Nc1c([N+](=O)[O-])cc(C)c(C)c1[N+](=O)[O-] [pendimethalin]
Control effect of B applied alone in a corresponding dose (Digitaria ischaemum; B alone 375 g a.i./ha): 65.7

COc1cnc(OC)n2nc(NS(=O)(=O)c3c(OCC(F)F)cccc3C(F)(F)F)nc12 [penoxsulam]
Control effect of B applied alone in a corresponding dose (Cyperus glomeratus; B alone 7.5 g a.i./ha): 26.4%

CCCOCCN(C(=O)CCl)c1c(CC)cccc1CC [pretilachlor]
Control effect of B applied alone in a corresponding dose (Echinochloa glabrescens [1]; B alone 150 g a.i./ha): 43.6

CCCC(=NOCC(C)Oc1ccc(Cl)cc1)C1=C(O)CC(C2CCCSC2)CC1=O (stereo not shown) [profoxydim]
Control effect of B applied alone in a corresponding dose (Echinochloa glabrescens [3]; B alone 45 g a.i./ha): 54.7%

CSc1nc(NC(C)C)nc(NC(C)C)n1 [prometryn]
pest or weed control at 300 g/ha [2, 4]: 41%

C#CCN(C)c1c(C#N)cnn1-c1nn2c(c1Cl)CCCC2 [pyraclonil]
Control effect of B applied alone in a corresponding dose (Cyperus glomeratus; B alone 45 g a.i./ha): 48.6%

CCOC(=O)c1cnn(C)c1S(=O)(=O)NC(=O)Nc1nc(OC)cc(OC)n1 [pyrazosulfuronethyl, pyrazosulfuron-ethyl]
Control effect of B applied alone in a corresponding dose (Cyperus glomeratus; B alone 7.5 g a.i./ha): 29.8%

Cn1nc(C(F)(F)F)c(CS(=O)(=O)C2=NOC(C)(C)C2)c1OC(F)F [pyroxasulfone]
Control effect of B applied alone in a corresponding dose (Digitaria ischaemum; B alone 45 g a.i./ha): 46.3

CS(=O)(=O)c1ccc(C(=O)C2C(=O)CCCC2=O)c(Cl)c1COCC1CCCO1 (stereo not shown) [tefuryltrione]
Control effect of B applied alone in a corresponding dose ([2]; B alone 15 g a.i./ha): 51.7%

CCNc1nc(Cl)nc(NC(C)(C)C)n1 [terbuthylazine]
pest or weed control at 225 g/ha ([2]; Echinochloa crus-galli, 504 h, B alone 225 g a.i./ha, read-out: Control effect of B applied alone in a corresponding dose): 48.4%

CC(C)N(C(=O)SCC(Cl)=C(Cl)Cl)C(C)C [triallate]
Control effect of B applied alone in a corresponding dose (Digitaria ischaemum; B alone 300 g a.i./ha): 38.4

Cc1cc(C)n(Cc2c(S(C)(=O)=O)ccc(C(=O)c3c(C)nn(C)c3OC(=O)c3cn(C)nc3C)c2Cl)n1 [tripyrasulfone]
Control effect of B applied alone in a corresponding dose ([2]; B alone 60 g a.i./ha): 50.4%

oxadiargyl
Control effect of B applied alone in a corresponding dose (Cyperus glomeratus; B alone 45 g a.i./ha): 42.5%
